According to the supplement of paper PMC10307832:

Experiments:
Experiment in all cases: relative viability (nuclei count vs DMSO), 5 days (fraction); higher = more cells survive
Irinotecan + Foretinib = compound: CCc1c2c(nc3ccc(OC(=O)N4CCC(N5CCCCC5)CC4)cc13)-c1cc3c(c(=O)n1C2)COC(=O)[C@]3(O)CC [Irinotecan] + COc1cc2c(Oc3ccc(NC(=O)C4(C(=O)Nc5ccc(F)cc5)CC4)cc3F)ccnc2cc1OCCCN1CCOCC1 [Foretinib] (partner 0.25 µM)
Method in brief: (§1)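 Lung cancer cell lines in 1536-well plates were dosed by pin tool the day after seeding, either with one drug alone or with a fixed anchor-drug dose plus five library-drug doses (not always all listed) in √10 steps. After 5 days, cells were fixed and their nuclei stained in one step (final 0.05% Triton X-100, 1% formaldehyde, 1 ug/ml Hoechst), then counted on 4× images. Relative viability is the nuclei count in treated wells divided by that in vehicle wells. Values are medians of duplicate plates.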

Irinotecan + Pemetrexed = compound: CCc1c2c(nc3ccc(OC(=O)N4CCC(N5CCCCC5)CC4)cc13)-c1cc3c(c(=O)n1C2)COC(=O)[C@]3(O)CC [Irinotecan] + Nc1nc2[nH]cc(CCc3ccc(C(=O)N[C@@H](CCC(=O)O)C(=O)O)cc3)c2c(=O)[nH]1 [Pemetrexed] (partner 0.2 µM)
Method in brief: as §1

MK-8033 + Pemetrexed = compound: Cn1cc(-c2cnc3ccc4ccc(CS(=O)(=O)NCc5ccccn5)cc4c(=O)c3c2)cn1 [MK-8033] + Nc1nc2[nH]cc(CCc3ccc(C(=O)N[C@@H](CCC(=O)O)C(=O)O)cc3)c2c(=O)[nH]1 [Pemetrexed] (partner 0.2 µM)
Method in brief: as §1

MK-8033 + Dasatinib = compound: Cn1cc(-c2cnc3ccc4ccc(CS(=O)(=O)NCc5ccccn5)cc4c(=O)c3c2)cn1 [MK-8033] + Cc1nc(Nc2ncc(C(=O)Nc3c(C)cccc3Cl)s2)cc(N2CCN(CCO)CC2)n1 [Dasatinib] (partner 0.075 µM)
Method in brief: as §1

Cell Line	relative viability (Irinotecan + Foretinib; first compound 0.6325 µM)	relative viability (Irinotecan + Foretinib; first compound 2 µM)	relative viability (Irinotecan + Foretinib; first compound 6.325 µM)	relative viability (Irinotecan + Foretinib; first compound 20 µM)	relative viability (Irinotecan + Pemetrexed; first compound 0.6325 µM)	relative viability (Irinotecan + Pemetrexed; first compound 2 µM)	relative viability (Irinotecan + Pemetrexed; first compound 6.325 µM)	relative viability (Irinotecan + Pemetrexed; first compound 20 µM)	relative viability (MK-8033 + Pemetrexed; first compound 0.02 µM)	relative viability (MK-8033 + Pemetrexed; first compound 0.06325 µM)	relative viability (MK-8033 + Pemetrexed; first compound 0.2 µM)	relative viability (MK-8033 + Pemetrexed; first compound 0.6325 µM)	relative viability (MK-8033 + Pemetrexed; first compound 2 µM)	relative viability (MK-8033 + Dasatinib; first compound 0.02 µM)	relative viability (MK-8033 + Dasatinib; first compound 0.06325 µM)	relative viability (MK-8033 + Dasatinib; first compound 0.2 µM)	relative viability (MK-8033 + Dasatinib; first compound 0.6325 µM)	relative viability (MK-8033 + Dasatinib; first compound 2 µM)
NCI-H322M	0.971	0.882	0.491	0.368	0.568	0.659	0.518	0.266	0.63	0.59	0.56	0.599	0.621	0.283	0.243	0.238	0.263	0.261
NCI-H358	0.563	0.476	0.195	0.134	0.167	0.19	0.146	0.167	0.165	0.181	0.158	0.167	0.164	0.15	0.149	0.198	0.163	0.175
NCI-H441	0.786	0.66	0.29	0.342	0.261	0.178	0.222	0.241	0.246	0.274	0.254	0.266	0.255	0.511	0.603	0.494	0.835	0.405
NCI-H460	0.815	0.418	0.136	0.0629	0.0679	0.093	0.0699	0.0601	0.0659	0.0591	0.0606	0.0625	0.0649	0.481	0.409	0.48	0.501	0.484
NCI-H520	0.623	0.679	0.352	0.283	0.509	0.277	0.273	0.167	0.625	0.697	0.607	0.652	0.602	0.193	0.187	0.211	0.221	0.168
NCI-H596	0.841	0.783	0.621	0.632	0.471	0.608	0.595	0.748	0.463	0.436	0.489	0.506	0.53	0.55	0.535	0.586	0.626	0.455
NCI-H647	0.986	0.742	0.174	0.132	0.165	0.154	0.153	0.105	0.199	0.166	0.165	0.185	0.172	0.164	0.164	0.188	0.197	0.173
NCI-H650	0.981	0.774	0.226	0.15	0.749	0.838	0.229	0.201	0.982	0.955	0.863	0.933	0.83	0.491	0.446	0.471	0.386	0.489
NCI-H661	0.957	0.913	0.605	0.397	0.886	0.653	0.41	0.232	0.907	0.867	0.876	0.909	0.905	0.886	0.818	0.783	0.766	0.858
NCI-H838	1.11	0.743	0.392	0.298	0.232	0.25	0.24	0.25	0.249	0.246	0.227	0.27	0.22	0.258	0.281	0.259	0.279	0.247
NCI-H1355	–	0.622	0.321	0.259	–	0.968	0.656	0.319	1.03	0.996	0.965	1.05	1	0.647	0.655	0.645	0.698	0.763
NCI-H1395	0.841	0.592	0.498	0.495	–	0.754	0.518	0.246	0.921	0.758	0.693	0.914	0.815	0.391	0.368	0.406	0.378	0.403
NCI-H1437	0.954	0.616	0.42	0.368	0.319	0.315	0.312	0.265	0.295	0.281	0.308	0.319	0.308	0.493	0.419	0.402	0.361	0.419
NCI-H1563	0.966	0.928	0.975	0.425	0.649	0.777	0.756	0.671	0.736	0.695	0.738	0.69	0.794	0.468	0.45	0.473	0.362	0.46
NCI-H1650	–	0.956	0.432	0.446	0.365	0.373	0.282	0.111	0.429	0.332	0.457	0.39	0.336	0.27	0.254	0.275	0.325	0.272
NCI-H1651	0.593	0.59	0.295	0.205	0.25	0.638	0.356	0.147	0.633	0.561	0.56	0.685	0.582	0.412	0.331	0.285	0.433	0.388
NCI-H1666	0.774	0.689	0.654	0.404	0.762	0.766	0.676	0.63	0.784	0.775	0.915	0.788	0.772	0.907	0.769	0.73	0.872	0.827
NCI-H1734	–	0.52	0.193	0.187	–	0.385	0.222	0.141	0.423	0.403	0.393	0.398	0.431	0.441	0.469	0.429	0.411	0.395
NCI-H1755	0.9	0.667	0.35	0.462	0.383	0.45	0.39	0.448	0.481	0.394	0.383	0.336	0.375	0.41	0.382	0.415	0.421	0.443
NCI-H1793	–	0.501	0.226	0.185	–	0.699	0.395	0.253	0.682	–	0.725	0.739	0.729	0.425	0.388	0.394	0.365	0.338
NCI-H1915	0.45	0.283	0.192	0.2	0.352	0.349	0.187	0.132	0.51	0.491	0.497	0.472	0.428	0.298	0.273	0.309	0.309	0.303
NCI-H1944	0.655	0.351	0.198	0.18	0.553	0.516	0.284	0.175	0.703	0.478	0.676	0.583	0.613	0.205	0.201	0.221	0.202	0.234
NCI-H1975	0.816	0.964	0.385	0.158	0.268	0.311	0.252	0.173	0.263	0.259	0.276	0.281	0.288	0.329	0.344	0.357	–	0.343
NCI-H1993	0.769	0.663	0.706	0.644	–	0.637	0.545	0.506	0.537	0.58	0.498	0.575	0.46	0.482	0.493	0.533	0.468	0.502
NCI-H2009	0.973	0.688	0.311	0.16	0.783	0.439	0.211	0.121	1.01	1.01	0.923	1.08	0.997	0.299	0.329	0.308	0.232	0.279
NCI-H2023	0.832	0.842	0.295	0.116	0.256	0.2	0.156	0.0599	0.21	0.211	0.216	0.22	0.222	0.603	0.437	0.421	0.342	0.288
NCI-H2085	1.06	0.775	0.464	0.54	0.661	0.915	0.826	0.468	0.722	0.767	0.862	0.874	0.875	0.209	0.246	0.247	0.265	0.225
NCI-H2087	0.748	0.326	0.169	0.192	0.489	0.197	0.172	0.195	0.622	0.714	0.629	0.578	0.674	0.95	0.852	0.754	0.763	0.772
NCI-H2126	–	1.18	0.67	0.51	0.414	0.606	0.456	0.383	0.674	0.661	0.613	0.689	0.649	0.601	0.556	0.597	0.601	0.573
NCI-H2170	1.01	0.616	0.252	0.214	0.277	0.245	0.238	0.151	0.275	0.266	0.299	0.257	0.26	0.681	0.553	0.604	0.581	0.481
